Laboratory results taken from US5326882A, “Chemiluminescent 3-(substituted Adamant-2'-Ylidene) 1,2-dioxetanes” (Tropix, Inc., priority 1992, dated 1994).

Assays:
[1] = target: T1, alkaline phosphatase-labeled DNA probe (Bos taurus, UniProt P19111); assay: Alkaline phosphatase-labeled DNA probe detection in membrane with and without BDMQ blocking step (Example XV); details: for Detection limit (in picograms DNA) 5. min. exp.: five minute exposure 40 minutes after dioxetane addition; for Detection limit (in picograms DNA) 1 min. exp.: one minute exposure 77 minutes after dioxetane addition
T1 construct: purchased Tropix, Inc
T1 sequence (P19111 20-506 limits assumed): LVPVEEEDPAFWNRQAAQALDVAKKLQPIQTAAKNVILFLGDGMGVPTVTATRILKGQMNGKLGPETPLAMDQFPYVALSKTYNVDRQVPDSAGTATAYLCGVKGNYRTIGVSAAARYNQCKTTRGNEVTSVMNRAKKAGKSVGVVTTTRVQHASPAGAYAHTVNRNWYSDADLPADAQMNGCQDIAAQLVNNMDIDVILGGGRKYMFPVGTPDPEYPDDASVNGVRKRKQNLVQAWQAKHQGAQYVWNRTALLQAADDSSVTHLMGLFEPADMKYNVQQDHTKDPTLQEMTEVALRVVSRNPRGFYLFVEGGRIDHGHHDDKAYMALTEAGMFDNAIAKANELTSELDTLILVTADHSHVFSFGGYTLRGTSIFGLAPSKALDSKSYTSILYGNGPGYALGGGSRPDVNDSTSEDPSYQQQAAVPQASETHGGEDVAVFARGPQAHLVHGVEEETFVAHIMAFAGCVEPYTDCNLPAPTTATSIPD
T1 sequence (P02701 25-152 partner): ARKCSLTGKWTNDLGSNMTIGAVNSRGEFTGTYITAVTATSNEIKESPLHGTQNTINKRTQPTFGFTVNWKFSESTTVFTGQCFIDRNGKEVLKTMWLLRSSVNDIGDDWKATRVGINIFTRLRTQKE
Description: pBr 322 plasmid (4700 bp) was subjected to a nick translation process using a Trans-Light kit (Tropix, Inc., Bedford, Mass.) to generate a mixture of biotinylated single stranded polynucleotides of 200-2000 bps in length.
This mixture was dotted onto a dry BIODYNE A membrane as five parallel columns of dots of the following concentrations:
The membrane was subjected to ultraviolet irradiation (UVP Mineral Light; UVP, San Gabriel, Calif.) for 3 minutes to fix the DNA to the surface of the membrane, then air dried. Next, the membrane was blocked in 0.2% casein/0.1% Tween 20 detergent in PBS for 1 hour, following which 1/5000 diluted avidin-alkaline phosphatase conjugate (Tropix, Inc.) in 0.2% casein in PBS was added. The membrane was then incubated for 30 minutes, washed three times (for 5 minutes each time) in 0.2% casein/0.1% Tween 20 detergent in PBS and washed once for five minutes in aqueous 0.1M diethanolamine containing 1 mm magnesium chloride and 0.02% sodium azide, pH 10.0 (substrate buffer).
Next, the five columns of rows of dots 1-5 were individually cut from the membrane ("strips 1-5"), as were the five columns of rows of dots 6-10 ("strips 6-10"). Strips 1-5 were washed with substrate buffer for 30 minutes. Strips 6-10 were blocked in 0.1% BDMQ in substrate buffer for 30 minutes. Both sets of strips were then incubated for 5 minutes in substrate buffer, then individually incubated for five minutes in aqueous solutions (0.25 mM) of 1,2-dioxetanes as indicated below:
All strips were then placed in camera luminometers and exposed on Polaroid Type 612 instant black and white film.

alkaline phosphatase [2] = target: T2, alkaline phosphatase (Bos taurus, UniProt P19111); assay: Chemiluminescent signal-to-noise levels with enhancers (Example XXIV); format: biochemical
T2 sequence (P19111 20-506 limits assumed): as the sequence (P19111 20-506 limits assumed) above
Description: The chemiluminescent signal to noise levels were obtained with 2.83×10^-13 M alkaline phosphatase and various R-substituted adamantyl 1,2-dioxetane phosphates in the presence of several enhancers. All measurements were performed in a Berthold LB952T luminometer at room temperature. First, the background chemiluminescence levels (signal in the absence of the enzyme) of each sample (in triplicate) were measured. Each sample consisted of 0.2 μmoles of dioxetane in 0.45 ml of 0.1 M diethanolamine, 1 mM MgCl2, pH 10.0, without or with 1 mg/ml of the indicated enhancer. Tubes were inserted into the luminometer and the luminescence intensity was measured. Next, the tubes were removed from the luminometer and alkaline phosphatase (50 μl containing 1.415×10^-16 moles) was added to each tube, and the luminescence intensity was measured at 5 and 20 minutes after substrate addition. The final concentration of dioxetane in each tube was 0.4 mM.
All enhancers used at 1 mg/ml in 0.1 M DEA, pH 10. Alkaline phosphatase concentration=2.83×10^-13 M. Measurements performed in a Berthold LB952T Luminometer.

alkaline phosphatase [3] = target: T2, alkaline phosphatase; assay: Detection limits for alkaline phosphatase, Berthold LB952T (Example XXII); format: biochemical; details: twice background
Description: The detection means for alkaline phosphatase with different chemiluminescent 1,2-dioxetane substrates were determined as follows: Duplicates of serial dilutions (1 to 3) of alkaline phosphates were incubated at room temperature with 0.4 mM dioxetane in 0.1 M diethanolamine, 1 mM MgCl2, pH 10.0, containing 1 mg/ml of either of the polymeric enhancers Enhancer 1 or Enhancer 2, in […].
Following either a 5 or a 20 minute incubation with a substrate, the chemiluminescence intensity was measured as a 5 second integrated Relative Light Units (RLU) and plotted as in FIG. 10. […] The alkaline phosphatase concentrations at twice background were used as the detection limits in Table 5.

[4] = target: T3, biotinylated pBR322-35mer detected with Avidix-AP (Bos taurus, UniProt P19111); assay: Half-time to maximum chemiluminescence, biotinylated DNA on membranes (Example XXVIII); details: 12.5 pg DNA, […] dioxetane in 0.1 M DEA, pH 10.0
T3 construct: purchased Tropix, Inc
T3 sequence (P19111 20-506 limits assumed): as above
Description: The performance of AMPPD and Cl-AMPPD on a nylon membrane was compared as follows: 12.5 picograms of biotinylated-pBR322-(35 mer) in 1 μL was spotted onto dry nylon membrane and crosslinked to the membrane with UV light. The membrane subsequently wetted with 1×SSC buffer, incubated with 0.2% casein, 0.1% Tween-20 in phosphate buffered saline (PBS) for 1 hour at room temperature, washed 4 times with 0.3% Tween-20 in PBS, washed twice in Substrate Buffer (0.1 M diethanolamine, 1 mM MgCl2, pH 10.0), and incubated for 5 minutes in 0.25 mM dioxetane in Substrate Buffer. In this fashion, two membranes: one incubated with AMPPD and the second with Cl-AMPPD, were generated. The membranes were then sealed in plastic, attached to the outside of a 12×75 mm glass test tube, and inserted into Turner Model 20-E luminometer equipped with a side-mounted photomultiplier detector and thermally equilibrated to 30° C. The chemiluminescence intensity was then monitored for 20-24 hours.
The half-times to the maximum chemiluminescence intensity obtained with AMPPD and Cl-AMPPD on PVDF and nylon membranes were calculated from data collected as described in Example XXVII, for the nylon membrane. For PVDF membrane, the revised protocol included the second Substrate Buffer wash followed by the membrane incubation for 5 minutes at room temperature in the Tropix NitroBlock™ reagent and a subsequent wash with Substrate Buffer prior to the dioxetane substrates addition. The half-times to the maximum chemiluminescent signal were calculated from the a plot of the logarithm (maximum chnemiluminescent signal minus signal at each time point) as a function of time and is shown in Table 9.
12.5 pg of biotinylated pBR322-35mer was detected with Avidix-AP and 0.24 mM dioxetane in 0.1 M DEA, pH 10.0.

alkaline phosphatase [5] = target: T2, alkaline phosphatase; assay: Alkaline phosphatase detection limits, Wilj microtiter plate luminometer (Example XXVI); format: biochemical; details: 23 MINUTE INCUBATION
[6] = BDMQ blocking step, listed as OH-Adamant-2'-ylidene (B isomer)
[7] = enhancer NONE, 5 min, alkaline phosphatase 2.83×10^-13 M
[8] = PVDF membrane treated with NitroBlock
[9] = BDMQ blocking step, listed as OH-Adamant-2'-ylidene (A isomer)

SMILES | Detection limit (in picograms DNA) 5. min. exp. ([1]; no BDMQ blocking step) | Detection limit (in picograms DNA) 5. min. exp. ([1]; BDMQ blocking step) | Detection limit (in picograms DNA) 1 min. exp. ([1]; BDMQ blocking step) | Detection limit (in picograms DNA) 1 min. exp. ([1]; no BDMQ blocking step) | chemiluminescent signal-to-noise level (alkaline phosphatase [2]; EMERALD 1 1 mg/ml, 5 min) | chemiluminescent signal-to-noise level (alkaline phosphatase [2]; EMERALD 1 1 mg/ml, 20 min) | chemiluminescent signal-to-noise level (alkaline phosphatase [2]; EMERALD 2 1 mg/ml, 5 min) | chemiluminescent signal-to-noise level (alkaline phosphatase [2]; EMERALD 2 1 mg/ml, 20 min) | chemiluminescent signal-to-noise level (alkaline phosphatase [2]; SAPPHIRE 1 1 mg/ml, 5 min) | chemiluminescent signal-to-noise level (alkaline phosphatase [2]; SAPPHIRE 1 1 mg/ml, 20 min) | chemiluminescent signal-to-noise level (alkaline phosphatase [2]; SAPPHIRE 2 1 mg/ml, 5 min) | chemiluminescent signal-to-noise level (alkaline phosphatase [2]; SAPPHIRE 2 1 mg/ml, 20 min) | chemiluminescent signal-to-noise level (alkaline phosphatase [2]; [7]) | chemiluminescent signal-to-noise level (alkaline phosphatase [2]; enhancer NONE, 20 min) | Detection limit for alkaline phosphatase (alkaline phosphatase [3]; ENHANCER 1, 5 MIN) | Detection limit for alkaline phosphatase (alkaline phosphatase [3]; ENHANCER 1, 20 MIN) | Detection limit for alkaline phosphatase (alkaline phosphatase [3]; ENHANCER 2, 5 MIN) | Detection limit for alkaline phosphatase (alkaline phosphatase [3]; ENHANCER 2, 20 MIN) | Alkaline phosphatase detection limit (at 2× background) (alkaline phosphatase [5]; SAPPHIRE II) | Alkaline phosphatase detection limit (at 2× background) (alkaline phosphatase [5]; SAPPHIRE) | further results
COC1(c2cccc(OP(=O)(O)O)c2)OOC12C1CC3CC2CC(O)(C3)C1 (single isomer, unassigned) [B-OH-AMPPD, disodium 3-(4-methoxyspiro-[1,2-dioxetane-3,2'-(5'-hydroxy)tricyclo[3.3.1.1^3,7]decan]-4-yl)phenyl phosphate] | 5.000 picograms DNA |  |  |  |  |  |  |  |  |  |  |  |  |  |  |  |  |  |  |  | Detection limit (in picograms DNA) 5. min. exp. [1, 6]: 1.250 picograms DNA; Detection limit (in picograms DNA) 1 min. exp. [1, 6]: 5.000 picograms DNA; Detection limit (in picograms DNA) 1 min. exp. ([1]; no BDMQ blocking step, listed as OH-Adamant-2'-ylidene (B isomer)): 20.000 picograms DNA
COC1(c2cccc(OP(=O)(O)O)c2)OOC12C1CC3CC(C1)CC2C3 (stereo not drawn) [AMPPD, 3-(4-methoxyspiro[1,2-dioxetane-3,2'-triyclo[3.3.1.1^3,7]decan]-4-yl)phenyl phosphate, reference compound] | 2.500 picograms DNA | 0.625 picograms DNA | 1.250 picograms DNA | 5.000 picograms DNA | 109 | 282 | 113 | 291 | 159 | 364 | 192 | 434 | 21 | 34 | 4.0 femtomoles/liter | 1.4 femtomoles/liter | 3.5 femtomoles/liter | 1.1 femtomoles/liter | 0.0013 pM | 0.0019 pM | HALF-TIME TO MAXIMUM CHEMILUMINESCENCE ([4]; Nylon membrane): 99.83 min; HALF-TIME TO MAXIMUM CHEMILUMINESCENCE [4, 8]: 49.51 min
COC1(c2cccc(OP(=O)(O)O)c2)OOC12C1CC3CC2CC(O)(C3)C1 (single isomer, unassigned) [A-OH-AMPPD, disodium 3-(4-methoxyspiro-[1,2-dioxetane-3,2'-(5'-hydroxy)tricyclo[3.3.1.1^3,7]decan]-4-yl)phenyl phosphate] | 5.000 picograms DNA |  |  |  |  |  |  |  |  |  |  |  |  |  |  |  |  |  | 0.0014 pM | 0.0015 pM | Detection limit (in picograms DNA) 5. min. exp. [1, 9]: 0.625 picograms DNA; Detection limit (in picograms DNA) 1 min. exp. [1, 9]: 2.500 picograms DNA; Detection limit (in picograms DNA) 1 min. exp. ([1]; no BDMQ blocking step, listed as OH-Adamant-2'-ylidene (A isomer)): 10.000 picograms DNA
COC1(c2cccc(OP(=O)(O)O)c2)OOC12C1CC3CC2CC(Cl)(C3)C1 (stereo not drawn) [Cl-AMPPD, disodium 3-(4-methoxyspiro-[1,2-dioxetane-3,2'-(5'-chloro)tricyclo[3.3.1.1^3,7]decan]-4-yl) phenyl phosphate] | 1.250 picograms DNA | 0.313 picograms DNA | 0.313 picograms DNA | 1.250 picograms DNA | 583 | 964 | 839 | 1280 | 577 | 827 | 1319 | 2221 | 82 | 98 | 1.0 femtomoles/liter | 0.6 femtomoles/liter | 0.8 femtomoles/liter | 0.4 femtomoles/liter | 0.00021 pM | 0.000705 pM | HALF-TIME TO MAXIMUM CHEMILUMINESCENCE ([4]; Nylon membrane): 47.48 min; HALF-TIME TO MAXIMUM CHEMILUMINESCENCE [4, 8]: 14.20 min
